Where “and” joins values, the source holds several entries; their conditions need not be identical. Identical values can stand only once. Entries after “also recorded” stand apart in the source; their conditions may differ.
Legend:
[1] = molecular target: protein kinase CDC42-binding-protein-kinase-alpha (CDC42BPA or MRCKA) (Homo sapiens, UniProt Q5VT25); assay: screening against 191 different protein kinases; format: biochemical; settings: screened against 191 different protein kinases
s.c. adipose tissue = assay: Single subcutaneous (s.c.) injection to rats, s.c. fat; format: in vivo, SD male rats; settings: single s.c. 25 mg/kg at 5 sites on left side, examined after 3 weeks
Method: SD male rats of about 400 g body weight were s.c. injected once (t=0) following light anesthesia with Ketamine-Xylazine.
MTK-012, at a final concentration of 10 mg/ml, was dissolved in a vehicle containing: 2.3% sodium decanoate (C10, Sigma, C4151), 2.3% sodium dodecanoate (C12, Sigma, L9755), 10% Solutol HS 15 (BASF, cat#06466701), 40% Propylene-Glycol (Sigma, P4347) and 45% Triacetin (Aldrich, cat#525073).
The injection of 1 ml MTK-012 (=25 mg/kg) was performed as follows: the left side of the rats body was shaved and s.c. injections, 0.2 ml each, were administered at 5 sites, equally distributed along the left side of the rats. The rats were sacrificed after 3 weeks and inner part of their skin was examined. It is evident that the s.c. adipose tissue was reduced (visibly shown) in the treated rats (FIGS. 3B and 3D), as manifested by the exposure of the underneath blood vessels, as compared with the same anatomical area in FIGS. 3A and 3C. It should be noted that although the injection was performed unilaterally, the effect expand to the entire subcutis.

abdominal adipose tissue = assay: Intraperitoneal (i.p.) injection to mice, gross pathology and abdominal fat; format: in vivo
Method: 42 wks old male mice (35-42 g body wt.) were i.p. injected with either vehicle (=Control, 10 mice) or with MTK-012 dissolved in that vehicle (10 mice).
Vehicle composition: aqueous solution of 4% Tween20 (Sigma, P7949) and 20% Propylene-Glycol (Sigma, P4347).
MTK-012 was dissolved in vehicle composition at a final concentration of 5 mg/ml.
The mice were initially (t=0) injected a dose of 20 mg/kg, or the equivalent volume of vehicle to the controls (solid arrow in FIG. 1). Three weeks later the mice were injected a double dose of 40 mg/kg of MTK-012 or 40 mg/kg of vehicle (broken arrow in FIG. 1).
Body weight was measured once a week; the results are shown in FIG. 1 and expressed as the % change in body weight relative to the body weight on day 0.
At t=6 wks the animals were sacrificed and dissected for gross pathology.

nap WAT = assay: Intra-nap fat-pad injection to Psammomys on high-fat diet, nap WAT; format: in vivo
Method: Ten 2-month old female pasmmomys were subjected to high-fat diet for 5 weeks prior to commencement of experiment.
0.1 ml vehicle (2.3% sodium decanoate (C10, Sigma, C4151), 2.3% sodium dodecanoate (C12, Sigma, L9755), 10% Solutol HS 15 (BASF, cat#06466701), 40% Propylene-Glycol (Sigma, P4347) and 45% Triacetin (Aldrich, cat#525073))
0.1 ml MTK-012 (concentration of 4 mg/ml in above vehicle).
0.1 ml MTK-013 (concentration of 4 mg/ml in above vehicle).
Intra nap fat-pad injections of each composition were administered to animals in each treatment groups (3, 3, and 4 animals in each treatment group respectively), twice a week for 2 weeks, while on high-fat diet. All animals were sacrificed after 4 days from last injection.
Table 1 below provides the results of nap WAT weight after 4 days from treatment.

Chain of protein kinase CDC42-binding-protein-kinase-alpha (CDC42BPA or MRCKA) (Q5VT25 whole entry): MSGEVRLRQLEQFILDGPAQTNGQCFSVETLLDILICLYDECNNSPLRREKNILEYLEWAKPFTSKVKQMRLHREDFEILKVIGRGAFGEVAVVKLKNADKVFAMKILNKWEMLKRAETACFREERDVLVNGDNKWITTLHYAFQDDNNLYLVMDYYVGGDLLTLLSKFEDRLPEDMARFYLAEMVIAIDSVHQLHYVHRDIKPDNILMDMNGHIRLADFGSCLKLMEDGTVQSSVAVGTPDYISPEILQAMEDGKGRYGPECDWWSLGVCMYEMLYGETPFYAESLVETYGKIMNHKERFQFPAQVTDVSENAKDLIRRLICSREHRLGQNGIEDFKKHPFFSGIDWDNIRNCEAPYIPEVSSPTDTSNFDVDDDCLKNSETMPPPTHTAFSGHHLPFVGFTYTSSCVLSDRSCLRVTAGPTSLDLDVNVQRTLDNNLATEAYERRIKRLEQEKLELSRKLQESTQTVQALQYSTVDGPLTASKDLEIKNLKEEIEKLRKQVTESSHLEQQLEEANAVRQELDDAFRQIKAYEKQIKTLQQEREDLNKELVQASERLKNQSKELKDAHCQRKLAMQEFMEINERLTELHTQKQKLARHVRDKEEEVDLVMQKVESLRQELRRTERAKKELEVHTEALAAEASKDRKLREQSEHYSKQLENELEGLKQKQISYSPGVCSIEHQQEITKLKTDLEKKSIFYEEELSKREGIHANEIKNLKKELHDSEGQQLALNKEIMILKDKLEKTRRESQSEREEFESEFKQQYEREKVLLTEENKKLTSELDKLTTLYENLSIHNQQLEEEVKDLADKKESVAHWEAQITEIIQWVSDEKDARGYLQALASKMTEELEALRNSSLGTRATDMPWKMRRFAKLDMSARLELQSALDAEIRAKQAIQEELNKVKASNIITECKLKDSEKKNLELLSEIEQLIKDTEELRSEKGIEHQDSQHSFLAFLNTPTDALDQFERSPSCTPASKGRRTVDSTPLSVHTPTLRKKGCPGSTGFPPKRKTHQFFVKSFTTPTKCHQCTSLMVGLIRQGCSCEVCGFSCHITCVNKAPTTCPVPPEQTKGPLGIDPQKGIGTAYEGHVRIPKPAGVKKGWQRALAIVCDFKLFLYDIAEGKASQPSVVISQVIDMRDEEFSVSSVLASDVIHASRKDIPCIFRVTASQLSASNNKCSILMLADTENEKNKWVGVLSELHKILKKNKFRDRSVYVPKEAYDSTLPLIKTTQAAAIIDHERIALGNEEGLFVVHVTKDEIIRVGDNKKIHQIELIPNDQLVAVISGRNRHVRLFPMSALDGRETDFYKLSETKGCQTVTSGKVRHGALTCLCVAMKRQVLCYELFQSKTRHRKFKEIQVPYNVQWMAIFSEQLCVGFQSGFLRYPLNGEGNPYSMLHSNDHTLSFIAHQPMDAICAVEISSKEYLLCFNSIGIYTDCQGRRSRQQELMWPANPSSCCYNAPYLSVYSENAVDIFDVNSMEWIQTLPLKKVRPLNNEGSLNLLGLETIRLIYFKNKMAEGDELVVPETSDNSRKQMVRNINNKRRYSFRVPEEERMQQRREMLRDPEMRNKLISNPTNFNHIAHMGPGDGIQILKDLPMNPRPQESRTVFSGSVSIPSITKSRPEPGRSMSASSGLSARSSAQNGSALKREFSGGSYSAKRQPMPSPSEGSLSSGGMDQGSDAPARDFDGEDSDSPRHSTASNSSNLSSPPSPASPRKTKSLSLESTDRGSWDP

SMILES: C[N+](C)(C)CCCCCn1c2ccc(Br)cc2c2cc(Br)ccc21.[Cl-] [MTK-012, 5-(3,6-dibromo-9H-carbazol-9-yl)-N,N,N-trimethylpentan-1-aminium chloride]
- inhibition of protein kinase CDC42BPA (MRCKA) in screen [1]: significantly selective inhibition
- s.c. adipose tissue (subcutaneous fat) (s.c. adipose tissue): reduction in subcutaneous fat; also recorded: reduced
- general condition of treated animals (abdominal adipose tissue; 42 wks old male mice, i.p. 20 mg/kg at t=0 and 40 mg/kg three weeks later): well and active, similar to the controls
- abdominal adipose tissue / abdominal fat-mass (abdominal adipose tissue; mice at t=6 wks, i.p. 20 mg/kg then 40 mg/kg, vs vehicle control): reduction in abdominal fat-mass; also recorded: ablation of the abdominal adipose tissue
- gross pathology, changes other than adipose tissue (abdominal adipose tissue; mice sacrificed at t=6 wks, i.p. 20 mg/kg then 40 mg/kg): No apparent change
- Nap WAT (g), single animals (nap WAT; 0.1 ml of 4 mg/ml intra nap fat-pad, twice a week for 2 weeks, 4 days after last injection): 3.7 g and 4.1 g and 4.6 g and 3.0 g
- Nap WAT Average (g) ± SEM (nap WAT; 0.1 ml of 4 mg/ml intra nap fat-pad, twice a week for 2 weeks, 4 days after last injection, vehicle 5.30 ± 0.21): 3.85 ± 0.34 g
- reduction in WAT as compared with vehicle (nap WAT; nap WAT weight 4 days after treatment): significant reduction

From patent publication US9447040B2, “Tricyclic compounds, compositions comprising them and uses thereof” (YISSUM RESEARCH DEVELOPMENT COMPANY OF THE HEBREW …, priority 2011, dated 2016)
